Test results taken from patent publication US11524950B2, “Treatment of immune-related and inflammatory diseases” (Celgene Corporation, priority 2012, dated 2022).
Where two headings read alike, the source gives them in different places.

How the values were obtained:
IL-6 = test: LPS-stimulated hPBMC cytokine production: IL-6; format: cell-based; conditions: Homo sapiens; LPS 1 ng/ml, 18 hours
Procedure: (§1) 50 ml human buffy coat was aliquoted 25 ml each into two 50 ml conical tubes and 25 ml sterile HBSS was added to each conical tube. The tubes were gently mixed by inverting. Fifteen ml of room temperature Ficoll-Paque Plus (GE Healthcare (location); cat #17-1440-02) was aliquoted into four 50 ml conical tubes. Then 25 ml of the Buffy coat/HBSS mixture was layered gently and slowly on top of the Ficoll. The samples were centrifuged at 450 rpm for 35 minutes. The top layered containing plasma was pipetted off and discarded. The interface containing mononuclear cells was transferred into two 50 ml conical tubes. Both conical tubes were filled to total volume of 50 ml with HBSS and centrifuged at 1200 rpm for 10 minutes. The cells were washed again in HBSS and spun at 1000 rpm for 10 minutes. Cell pellet was resuspended with 20 ml RPMI complete medium (RPMI/5% human sera/1× pen/strep/glut) and counted.
(§2) One hundred μl (2×10^6/ml) of hPBMCs were added to each well of a 96 well flat-bottom plate (final cell count=2×10^5/well) and incubated at 37° C. for 1 hour. […] compound was added to each test well and twenty μl medium containing 2.5% DMSO was added to each control well ([DMSO]final=0.25%) and plate was incubated for 1 hour at 37° C. Cells were then stimulated with […] 2.5 ng/ml LPS ([LPS]final=1 ng/ml) and incubated for 18 hours at 37° C.
(§3) 50 μl supernatant from each well was transferred into 3 new round-bottomed 96 well plates and stored at −20° C. for Luminex analysis. Duplicate wells were performed for each sample.
(§4) Supernatant samples were analyzed for cytokines in multiplex format according to the manufacturer's instructions (Millipore, Billerica, Ma 01821) using a Luminex IS100 instrument. IL-12 and GM-CSF analyses were done in a two-plex format using neat supernatants while all other cytokines were done in a multiplex format using supernatants diluted 1:20. Data analysis was performed using Upstate Beadview software. […] The IC50 were performed using GraphPad Prism v5.00. […]

IL-8 = test: LPS-stimulated hPBMC cytokine production: IL-8; format: cell-based; conditions: Homo sapiens; LPS 1 ng/ml, 18 hours
Procedure: as §1, §2, §3, §4

GM-CSF = test: LPS-stimulated hPBMC cytokine production: GM-CSF; format: cell-based; conditions: Homo sapiens
Procedure: as §1, §2, §3, §4

MDC = test: LPS-stimulated hPBMC cytokine production: MDC; format: cell-based; conditions: Homo sapiens; LPS 1 ng/ml, 18 hours
Procedure: as §1, §2, §3, §4

MIP-1β = test: LPS-stimulated hPBMC cytokine production: MIP-1β; format: cell-based; conditions: Homo sapiens; LPS 1 ng/ml, 18 hours
Procedure: as §1, with “Fifteen ml of room temperature Ficoll-Paque Plus (GE Healthcare (location); cat #17-1440-02) was aliquoted into four 50 ml conical tubes.” left out
Cells were then stimulated with […] 2.5 ng/ml LPS ([LPS]final=1 ng/ml) and incubated for 18 hours at 37° C.
as §3
IL-12 and GM-CSF analyses were done in a two-plex format using neat supernatants while all other cytokines were done in a multiplex format using supernatants diluted 1:20. Data analysis was performed using Upstate Beadview software. […] The IC50 were performed using GraphPad Prism v5.00. The data values represent the mean±SEM (standard error of the mean) of n (number of experiments in duplicate).

TNF-α = test: LPS-stimulated hPBMC cytokine production: TNF-α; format: cell-based; conditions: Homo sapiens; LPS 1 ng/ml, 18 hours
Procedure: as §1, §2, §3, §4

IL-10 = test: LPS-stimulated hPBMC cytokine production: IL-10 enhancement; format: cell-based, human; conditions: at 0.1 μM
Procedure: as §1, §2, §3, §4

MCP-1 = test: LPS-stimulated hPBMC cytokine production: MCP-1 enhancement; format: cell-based, human; conditions: at 0.1 μM
Procedure: as §1, §2, §3, §4

NK cell IFN-γ production = test: NK IgG-induced interferon-gamma (IFN-gamma) assay; format: cell-based; conditions: Homo sapiens, 48 h
Procedure: NK cells from healthy donors were isolated from buffy coat blood by negative selection using the RosetteSep NK cell enrichment cocktail (Stem Cell Technologies, Vancouver, BC) prior to Ficoll-Hypaque (Fisher Scientific Co LLC, PA) density gradient centrifugation following the manufacturers' instructions. CD56+NK cells were isolated to ˜85% purity, as determined by flow cytometry (BD Biosciences, CA).
Ninety-six-well flat-bottom plates were coated with 100 μg/mL of human IgG (Sigma) overnight at 4° C. The next day, unbound IgG was washed away with cold 1×PBS. NK cells were then plated in the IgG-coated 96-well plates at 2×10^5 cells per well in 180 μL RPMI-1640 Media and 10 ng/mL of rhIL-2 (R & D Systems, MN) was added. Test compounds were added in a volume of […]. Final concentrations of test compounds were 0.0001, 0.001, 0.01, 0.1, 1, or 10 μM. Final DMSO concentrations were 0.25%. After 48 hours, the supernatants were harvested and analyzed by ELISA for IFN-γ production.
Data used to determine the ability of test compounds to enhance NK cell IFN-γ production in response to immobilized IgG and rhIL-2 stimulation was analyzed for each donor using GraphPad Prism v5.0 software.

[1] = test system: CTGF, PAI-1, COL1A1, TGFB1; test: Tsk-1 mouse skin TGF-β pathway gene overexpression (qRT-PCR); format: in vivo; conditions: 30 mg/kg
Description: Next, to examine the effect of the compound on the overexpression of TGF-β pathway genes in Tsk-1 mouse skin, qRT-PCR was used to measure mRNA levels for six genes: CTGF, PAI-1, COL1A1, α-smooth muscle actin (ALPHA SMA), cartilage oligomeric protein 1 (COMP), and TGFB1. Overexpression was defined as the excess mRNA levels observed in Tsk-1 mouse skin compared to normal pa/pa mouse skin. […] PAI-1 and TGFB1 gene overexpression was not inhibited by the compound.

[2] = LPS 1 ng/ml, 18 hours, read-out: GM-CSF IC50
[3] = Tsk-1 vs pa/pa mouse skin mRNA, p≤0.001

Row | Structure (SMILES) | IC50 (IL-6) [nM] | IC50 (IL-8) [nM] | IC50 (GM-CSF; 18 h, read-out: GM-CSF IC50 (μM)) [µM] | IC50 (MDC) [nM] | IC50 (MIP-1β) [nM] | IC50 (TNF-α) [nM] | IL-10 Mean % of Control (IL-10) | MCP-1 Mean % of Control (MCP-1) | EC50 (NK cell IFN-γ production) [nM] | IC50 (GM-CSF; [2]) [µM] | PAI-1 gene overexpression [1] | TGFB1 gene overexpression [1] | reduction of overexpression of COL1A1 [1, 3] [%] | reduction of overexpression of CTGF [1, 3] [%]
1 | O=C1CCC(N2Cc3c(OCc4ccc(CN5CCOCC5)cc4)cccc3C2=O)C(=O)N1 (racemic) [Racemate, 3-[4-(4-morphlin-4-ylmethylbenzyloxy)-1-oxo-1,3-dihydro-isoindo-2-yl]piperidine-2,6-dione] | 10 | > 10000 | 0.0092 | 2.6 | > 10000 | 1.8 | 371 % of control | 208 % of control | 37 | – | – | – | – | –
2 | O=C1CC[C@@H](N2Cc3c(OCc4ccc(CN5CCOCC5)cc4)cccc3C2=O)C(=O)N1 [R-enantiomer, (R)-3-[4-(4-morphlin-4-ylmethylbenzyloxy)-1-oxo-1,3-dihydro-isoindo-2-yl]piperidine-2,6-dione] | 83 | > 10000 | – | 12 | > 10000 | 9.5 | 442 % of control | 223 % of control | 16 | 0.039 | – | – | – | –
3 | O=C1CC[C@H](N2Cc3c(OCc4ccc(CN5CCOCC5)cc4)cccc3C2=O)C(=O)N1 [Test compound, (S)-3-[4-(4-morphlin-4-ylmethylbenzyloxy)-1-oxo-1,3-dihydro-isoindo-2-yl]piperidine-2,6-dione] | 3.8 | > 10000 | – | 2.1 | > 10000 | 0.59 | 379 % of control | 233 % of control | 12 | 0.0022 | not inhibited | not inhibited | 129 | 79
